Source: US20260226037A1, “MICROTUBULE TARGETING AGENTS” (ARIEL SCIENTIFIC INNOVATIONS LTD., priority 2022, published 2026)
Like-named read-outs stand apart in the source and are kept apart here.

Assays:
Assay type in all cases: cell-based
[1] = system: N6/ADR cells; assay: XTT cytotoxicity, N6/ADR; details: for IC50 ratio between resistant and non-resistant cells: N6/ADR / NALM6; for IC50: N6/ADR, acute lymphoblastic leukemia, P-gp overexpression, read-out: IC50
Method: (§1) The cytotoxic activity of the novel family was evaluated against various tumor cells, including myeloma cells, acute lymphoblastic leukemia cells, acute monocytic leukemia cells, chronic myelogenous leukemia cells, pancreatic cancer cells, breast cancer cells, uterine sarcoma cells, cervix adenocarcinoma cells, ovary cancer cells, melanoma cells, osteosarcoma cells, prostate cancer cells, lung cancer cells, neuroblastoma cells and colorectal adenocarcinoma cells by XTT assay.
(§2) Most tubulin-binding anticancer drugs currently used in the clinic are substrates for Pgp effux pump. […] The inventors tested the viability of NALM6 acute lymphoblastic leukemia cell line (ALL) and its corresponding doxorubicin resistant N6/ADR cell line that overexpress Pgp glycoprotein and has cross-resistance to vincristine.

[2] = system: colchicine binding site on tubulin protein; assay: EBI competition assay, RPMI-8226 cells; details: RPMI-8226 living cells
[3] = system: RPMI 8226 cells; assay: XTT cytotoxicity, RPMI 8226; details: RPMI 8226, multiple myeloma, non-resistant, read-out: IC50
Method: as §1

[4] = system: NALM6 cells; assay: XTT cytotoxicity, NALM6; details: NALM6, acute lymphoblastic leukemia, non-resistant, read-out: IC50
Method: as §1, §2

[5] = system: RPMI-DOX40 cells; assay: XTT cytotoxicity, RPMI-DOX40; details: for IC50: RPMI-DOX40, multiple myeloma, P-gp overexpression, read-out: IC50; for IC50 ratio between resistant and non-resistant cells: RPMI-DOX40 / RPMI 8226
Method: as §1

[6] = system: MES-SA/DX5 cells; assay: XTT cytotoxicity, MES-SA/DX5; details: for IC50: MES-SA/DX5, uterine sarcoma, P-gp overexpression; for IC50 ratio between resistant and non-resistant cells: MES-SA/DX5 / MES-SA
Method: as §1

[7] = system: RPMI-LR5 cells; assay: XTT cytotoxicity, RPMI-LR5
Method: as §1

[8] = system: MCF7 cells; assay: XTT cytotoxicity, MCF7; details: MCF7, breast adenocarcinoma, non-resistant
Method: as §1

[9] = system: MES-SA cells; assay: XTT cytotoxicity, MES-SA; details: poorly differentiated uterine sarcoma, non-resistant
Method: as §1

[10] = system: RPMI8226 cells; assay: Cell cycle distribution by flow cytometry; details: 6 hours; IC50, IC50x2.5 and IC50x5 concentrations
Method: Cell cycle arrest is a shared consequence of MTAs treatment. The effects of cell cycle distribution were determined in RPMI8226 cells treated for 6 and 18 hours with a range of concentrations of the molecules. The cells were stained with propidium iodide and cell cycle distribution was measured using a cytoFLEX flow cytometer.

[11] = system: MM1.S cells; assay: XTT cytotoxicity, MM1.S; details: multiple myeloma, non-resistant, read-out: IC50
Method: as §1

[12] = system: RPMI-MR20 cells; assay: XTT cytotoxicity, RPMI-MR20
Method: as §1

[13] = system: MM1.R cells; assay: XTT cytotoxicity, MM1.R
Method: as §1

[14] = system: MCF7-VP cells; assay: XTT cytotoxicity, MCF7-VP; details: for IC50 ratio between resistant and non-resistant cells: MCF7-VP / MCF7; for IC50: MCF7-VP, breast adenocarcinoma, MRP overexpression
Method: as §1

[15] = system: A2780 cells; assay: XTT cytotoxicity, A2780; details: A2780, ovarian carcinoma, non-resistant
Method: as §1

[16] = system: A2780ADR cells; assay: XTT cytotoxicity, A2780ADR
Method: as §1

[17] = system: NCI-H69 VCR/R cells; assay: XTT cytotoxicity, NCI-H69 VCR/R
Method: as §1

[18] = system: NCI-H69 cells; assay: XTT cytotoxicity, NCI-H69; details: NCI-H69, small cell lung carcinoma, non-resistant
Method: as §1

Row | Molecule | IC50 ratio between resistant and non-resistant cells [1] | IC50 [1] [µM] | prevention of covalent binding of EBI to the colchicine binding site [2] | IC50 ([3]; Homo sapiens) [µM] | IC50 ([4]; Homo sapiens, NALM-6) [µM] | IC50 [5] [µM] | IC50 ratio between resistant and non-resistant cells [5] | IC50 [6] [µM] | IC50 ratio between resistant and non-resistant cells [6] | IC50 [8] [µM] | IC50 [9] [µM] | IC50 ratio between resistant and non-resistant cells [14] | IC50 [14] [µM] | other results
1 | CCCOC(=O)c1[nH]c2c(c1C)C(O)CC(c1ncco1)C2 (stereo not shown) [SMS291, propyl-4-hydroxy-3-methyl-6-(oxazol-2-yl)-4,5,6,7-tetrahydro-1H-indole-2-carboxylate] | 0.686 | 0.35 | did not prevent the covalent binding of EBI to the colchicine binding site | 0.978 | 0.51 | 0.531 | 0.543 |  |  |  |  |  |  | 
2 | CCCOC(=O)c1[nH]c2c(c1C)C(=O)CN(c1ncco1)C2 [SMS294, Propyl 3-methyl-6-(oxazol-2-yl)-4-oxo-4,5,6,7-tetrahydro-1H-pyrrolo[2,3-c]pyridine-2-carboxylate] | 2.138 | 1.94 |  | 0.666 | 0.907 | 1.06 | 1.598 |  |  |  |  |  |  | 
3 | CCCCCOC(=O)c1[nH]c2c(c1C)C(=O)CN(c1ccccc1)C2 [SMS078, Pentyl 3-methyl-4-oxo-6-phenyl-4,5,6,7-tetrahydro-1H-pyrrolo[2,3-c]pyridine-2-carboxylate] | 0.927 | 0.165 |  | 0.21 | 0.178 | 0.489 | 2.329 |  |  |  |  |  |  | 
4 | Cc1c(C(=O)OCCCCN)[nH]c2c1C(=O)CC(c1ncco1)C2.Cl.Cl (stereo not shown) [SMS088, 4-ami0butyl-3-methyl-6-(oxazol-2-yl)-4-oxo-4,5,6,7-tetrahydro-1H-indole-2-carboxylate dihydrogen chloride] | 1.107 | 0.062 | prevented the covalent binding of EBI to the colchicine binding site |  |  | 1.35 | 0.839 | 5.26 | 2.391 | 5.84 | 2.2 | 1.251 | 7.3 | IC50 [3]: 1.61 µM; IC50 [4]: 0.056 µM; IC50 ([7]; RPMI-LR5, multiple myeloma, melphalan resistant, read-out: IC50): 1.43 µM; IC50 ratio between resistant and non-resistant cells ([7]; RPMI-LR5 / RPMI 8226): 0.885; cell cycle arrest [10]: cell cycle arrest in G2M phase; IC50 [11]: 1.1 µM; IC50 ([12]; RPMI-MR20, mitoxantrone resistant, read-out: IC50): > 1.8 µM; IC50 ratio between resistant and non-resistant cells ([12]; RPMI-MR20 / RPMI 8226): >1.116; IC50 ratio between resistant and non-resistant cells ([13]; MM1.R / MM1.S): 0.934; IC50 ([13]; MM1.R, multiple myeloma, dexamethasone resistant, read-out: IC50): 1.02 µM
5 | Epothilone |  |  |  |  |  |  |  | 0.187 | 3.613 | 0.22 | 0.052 | 2.073 | 0.456 | IC50 [15]: 0.0027 µM; IC50 ratio between resistant and non-resistant cells ([16]; A2780ADR / A2780): >370.370; IC50 ([16]; A2780ADR, ovarian carcinoma, resistant): > 1 µM; IC50 ratio between resistant and non-resistant cells ([17]; NCI-H69 VCR/R / NCI-H69): >11.364; IC50 ([17]; NCI-H69 VCR/R, vincristine resistant): > 1 µM; IC50 [18]: 0.088 µM
